Data reported in patent US8338565B2, “Macrocyclic compounds for inhibition of tumor necrosis factor alpha” (Ensemble Therapeutics Corporation, priority 2008, dated 2012).
pIC50: −log10 of the molar value. Numbered stars: 1 amine (or outer) side, 2 acyl side, 3 side chain; on linkers, the order of the positions; unused ones are H or OH. Bridge positions count the residues as written; N and C are the ends. Square brackets hold non-standard residues; d marks the D form. Peptide text beside a SMILES is read from it. * marks the point of attachment. Bip(2'-Me) = Cc1ccccc1-c1ccc(C[C@H](N)C(=O)O)cc1; Phe(3,4-(OMe)2) = COc1ccc(C[C@H](N)C(=O)O)cc1OC; dPhe(3-CF3) = N[C@H](Cc1cccc(C(F)(F)F)c1)C(=O)O; dPhe(4-CF3) = N[C@H](Cc1ccc(C(F)(F)F)cc1)C(=O)O; Phe(4-tBu) = CC(C)(C)c1ccc(C[C@H](N)C(=O)O)cc1; dPhe(2-CF3) = N[C@H](Cc1ccccc1C(F)(F)F)C(=O)O; Bip = N[C@@H](Cc1ccc(-c2ccccc2)cc1)C(=O)O; Phe(3-OMe) = COc1cccc(C[C@H](N)C(=O)O)c1; Phe(4-CN) = N#Cc1ccc(C[C@H](N)C(=O)O)cc1; dPhe(4-Cl) = N[C@H](Cc1ccc(Cl)cc1)C(=O)O; Phe(4-NH2) = Nc1ccc(C[C@H](N)C(=O)O)cc1; Phe(4-Me) = Cc1ccc(C[C@H](N)C(=O)O)cc1; dPhe(2-Me) = Cc1ccccc1C[C@@H](N)C(=O)O; His(τ-Me) = Cn1cnc(C[C@H](N)C(=O)O)c1; Met(O2) = CS(=O)(=O)CC[C@H](N)C(=O)O; mTyr = N[C@@H](Cc1cccc(O)c1)C(=O)O; Igl = N[C@H](C(=O)O)C1Cc2ccccc2C1; hPhe = N[C@@H](CCc1ccccc1)C(=O)O; 2Thi = N[C@@H](Cc1cccs1)C(=O)O; Cha = N[C@@H](CC1CCCCC1)C(=O)O; d2Thi = N[C@H](Cc1cccs1)C(=O)O; d3Thi = N[C@H](Cc1ccsc1)C(=O)O; dPhg = N[C@@H](C(=O)O)c1ccccc1; Suc = O=C(CCC(=O)[*:2])[*:1]; Nicotinoyl = O=C(c1cccnc1)*; Nphe = O=C(O)CNCc1ccccc1; Bn = c1ccc(C*)cc1; tBu = CC(C)(C)*

Target: T1, TNFα / TNFα receptor (TNFα R1/Fc) (Homo sapiens, UniProt P01375)
T1 construct: purchased R&D Systems
Test: Inhibition of binding of TNFα to the TNFα receptor (plate ELISA competition)
Details: Table 2; read-out: Activity (IC50, inhibition of TNFα binding to TNFα R1/Fc)
Description: The compounds listed in Table 2 below were assayed for ability to inhibit binding of TNFα to the TNFα receptor (TNFα R1/Fc). The assays were performed as described in the following procedure: TNFα (R&D Systems) was coated on high binding plate wells (Corning 96-well) at a single uniform concentration of 15 nM, 100 μL/well in PBS. The coating proceeded for 30 minutes at 37° C. then 10 minutes at 4° C. The coated plate was washed with PBST, then 250 μL/well of blocking solution (PBST 0.1% BSA, bovine serum albumin) was added and incubation proceeded for 30-45 minutes at room temperature with agitation. The solution phase competition proceeded separately with the dilutions of test compound in PBST (phosphate buffered saline with Tween 20), 2% DMSO in a polypropylene plate (Corning 96-well storage plate) with a single concentration, 8.33 nM of the high affinity receptor for TNFα (R&D Systems). This solution phase incubation proceeded for 30 minutes at room temperature with agitation and was then added to the washed TNFα coated assay plate, 100 μL/well, and was incubated for a further 30 minutes at room temperature with agitation. The assay plate was washed and 100 μL goat anti-human IgG (Fc) HRP labeled antibody in PBST, 13 pM, (KPL Cat#04-10-2) was added to each well. This incubation proceeded for 25-30 minutes at room temperature with agitation. Following this incubation step, the plate was washed and a 100 μL TMB solution (SUREBLUE™ TMB Peroxidase substrate, KPL) was added per well and allowed to stand approximately 3-5 minutes for development. The TMB reaction was stopped with the addition of 0.5N HCl and then the plate was read for absorbance at 450 nm.

T1 sequence (P01375 77-233 limits assumed, species assumed): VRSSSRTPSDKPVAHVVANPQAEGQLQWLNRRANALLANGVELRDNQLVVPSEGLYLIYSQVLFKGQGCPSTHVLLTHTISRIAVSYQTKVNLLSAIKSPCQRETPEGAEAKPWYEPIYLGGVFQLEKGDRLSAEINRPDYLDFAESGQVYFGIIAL

Structure (SMILES) | pIC50
N=C(N)NCCC[C@@H]1NC(=O)[C@H](Cc2ccc(-c3ccccc3)cc2)NC(=O)[C@@H](Cc2cccs2)NC(=O)CCC(=O)Nc2ccc(cc2)C[C@@H](C(=O)O)NC1=O [Compound 72] ([d2Thi][Bip]R[Phe(4-NH2)]-OH; linker N-4 via Suc) | < 4.00
N=C(N)NCCC[C@H]1NC(=O)[C@H](Cc2ccc(-c3ccccc3)cc2)NC(=O)[C@@H](Cc2cccs2)NC(=O)CCC(=O)Nc2ccc(cc2)C[C@@H](C(=O)O)NC1=O [Compound 73] ([d2Thi][Bip][dR][Phe(4-NH2)]-OH; linker N-4 via Suc) | < 4.00
O=C1CCC(=O)N[C@H](Cc2cccs2)C(=O)N[C@@H](Cc2ccc(-c3ccccc3)cc2)C(=O)N[C@H](Cc2cccs2)C(=O)N[C@H](C(=O)O)Cc2ccc(cc2)N1 [Compound 74] ([d2Thi][Bip][d2Thi][Phe(4-NH2)]-OH; linker N-4 via Suc) | 4.00 to 4.52
O=C1CCC(=O)N[C@H](Cc2cccs2)C(=O)N[C@@H](Cc2ccc(-c3ccccc3)cc2)C(=O)N[C@H](c2ccccc2)C(=O)N[C@H](C(=O)O)Cc2ccc(cc2)N1 [Compound 76] ([d2Thi][Bip][dPhg][Phe(4-NH2)]-OH; linker N-4 via Suc) | 4.52 to 5.00
O=C1CCC(=O)N[C@H](Cc2cccs2)C(=O)N[C@@H](Cc2ccc(-c3ccccc3)cc2)C(=O)N[C@H](Cc2ccccc2C(F)(F)F)C(=O)N[C@H](C(=O)O)Cc2ccc(cc2)N1 [Compound 77] ([d2Thi][Bip][dPhe(2-CF3)][Phe(4-NH2)]-OH; linker N-4 via Suc) | 4.00 to 4.52
O=C1CCC(=O)N[C@H](Cc2cccs2)C(=O)N[C@@H](Cc2ccc(-c3ccccc3)cc2)C(=O)N[C@H](Cc2cccc(C(F)(F)F)c2)C(=O)N[C@H](C(=O)O)Cc2ccc(cc2)N1 [Compound 78] ([d2Thi][Bip][dPhe(3-CF3)][Phe(4-NH2)]-OH; linker N-4 via Suc) | < 4.00
O=C1CCC(=O)N[C@H](Cc2cccs2)C(=O)N[C@@H](Cc2ccc(-c3ccccc3)cc2)C(=O)N[C@H](Cc2ccc(C(F)(F)F)cc2)C(=O)N[C@H](C(=O)O)Cc2ccc(cc2)N1 [Compound 79] ([d2Thi][Bip][dPhe(4-CF3)][Phe(4-NH2)]-OH; linker N-4 via Suc) | < 4.00
Cc1ccccc1C[C@H]1NC(=O)[C@H](Cc2ccc(-c3ccccc3)cc2)NC(=O)[C@@H](Cc2cccs2)NC(=O)CCC(=O)Nc2ccc(cc2)C[C@@H](C(=O)O)NC1=O [Compound 80] ([d2Thi][Bip][dPhe(2-Me)][Phe(4-NH2)]-OH; linker N-4 via Suc) | < 4.00
O=C1CCC(=O)N[C@H](Cc2cccs2)C(=O)N[C@@H](Cc2ccc(-c3ccccc3)cc2)C(=O)N[C@H](Cc2ccc(Cl)cc2)C(=O)N[C@H](C(=O)O)Cc2ccc(cc2)N1 [Compound 81] ([d2Thi][Bip][dPhe(4-Cl)][Phe(4-NH2)]-OH; linker N-4 via Suc) | < 4.00
O=C1CCC(=O)N[C@H](Cc2cccs2)C(=O)N[C@@H](CC2CCCCC2)C(=O)N[C@H](Cc2ccccc2)C(=O)N[C@H](C(=O)O)Cc2ccc(cc2)N1 [Compound 84] ([d2Thi][Cha][dF][Phe(4-NH2)]-OH; linker N-4 via Suc) | < 4.00
O=C1CCC(=O)N[C@H](Cc2cccs2)C(=O)N[C@@H](CCCCNC(=O)c2cccnc2)C(=O)N[C@H](Cc2ccccc2)C(=O)N[C@H](C(=O)O)Cc2ccc(cc2)N1 [Compound 96] ([d2Thi]K(Nicotinoyl)[dF][Phe(4-NH2)]-OH; linker N-4 via Suc) | < 4.00
CS(=O)(=O)CC[C@@H]1NC(=O)[C@@H](Cc2cccs2)NC(=O)CCC(=O)Nc2ccc(cc2)C[C@@H](C(=O)O)NC(=O)[C@@H](Cc2ccccc2)NC1=O [Compound 98] ([d2Thi][Met(O2)][dF][Phe(4-NH2)]-OH; linker N-4 via Suc) | < 4.00
O=C1CCC(=O)N[C@H](Cc2cccs2)C(=O)N[C@@H](C2Cc3ccccc3C2)C(=O)N[C@H](Cc2ccccc2)C(=O)N[C@H](C(=O)O)Cc2ccc(cc2)N1 [Compound 99] ([d2Thi][Igl][dF][Phe(4-NH2)]-OH; linker N-4 via Suc) | < 4.00
Cn1cnc(C[C@@H]2NC(=O)[C@@H](Cc3cccs3)NC(=O)CCC(=O)Nc3ccc(cc3)C[C@@H](C(=O)O)NC(=O)[C@@H](Cc3ccccc3)NC2=O)c1 [Compound 100] ([d2Thi][His(τ-Me)][dF][Phe(4-NH2)]-OH; linker N-4 via Suc) | < 4.00
O=C1CCC(=O)N[C@H](Cc2cccs2)C(=O)N(Cc2ccccc2)CC(=O)N[C@H](Cc2ccccc2)C(=O)N[C@H](C(=O)O)Cc2ccc(cc2)N1 [Compound 101] ([d2Thi][Nphe][dF][Phe(4-NH2)]-OH; linker N-4 via Suc) | < 4.00

The remaining lines, values ahead:

pIC50 | Structure (SMILES)
< 4.00 | O=C(O)CC[C@H]1NC(=O)[C@H](Cc2ccc(-c3ccccc3)cc2)NC(=O)[C@@H](Cc2cccs2)NC(=O)CCC(=O)Nc2ccc(cc2)C[C@@H](C(=O)O)NC1=O [Compound 69] ([d2Thi][Bip][dE][Phe(4-NH2)]-OH; linker N-4 via Suc)
4.00 to 4.52 | O=C1CCC(=O)N[C@H](Cc2cccs2)C(=O)N[C@@H](Cc2ccc(-c3ccccc3)cc2)C(=O)N[C@H](Cc2ccsc2)C(=O)N[C@H](C(=O)O)Cc2ccc(cc2)N1 [Compound 75] ([d2Thi][Bip][d3Thi][Phe(4-NH2)]-OH; linker N-4 via Suc)
< 4.00 | O=C1CCC(=O)N[C@H](Cc2cccs2)C(=O)N[C@@H](Cc2ccccc2)C(=O)N[C@H](Cc2ccccc2)C(=O)N[C@H](C(=O)O)Cc2ccc(cc2)N1 [Compound 83] ([d2Thi]F[dF][Phe(4-NH2)]-OH; linker N-4 via Suc)
< 4.00 | CC(C)(C)Oc1ccc(C[C@@H]2NC(=O)[C@@H](Cc3cccs3)NC(=O)CCC(=O)Nc3ccc(cc3)C[C@@H](C(=O)O)NC(=O)[C@@H](Cc3ccccc3)NC2=O)cc1 [Compound 86] ([d2Thi]Y(tBu)[dF][Phe(4-NH2)]-OH; linker N-4 via Suc)
< 4.00 | O=C1CCC(=O)N[C@H](Cc2cccs2)C(=O)N[C@@H](Cc2ccc(O)cc2)C(=O)N[C@H](Cc2ccccc2)C(=O)N[C@H](C(=O)O)Cc2ccc(cc2)N1 [Compound 87] ([d2Thi]Y[dF][Phe(4-NH2)]-OH; linker N-4 via Suc)
< 4.00 | COc1cccc(C[C@@H]2NC(=O)[C@@H](Cc3cccs3)NC(=O)CCC(=O)Nc3ccc(cc3)C[C@@H](C(=O)O)NC(=O)[C@@H](Cc3ccccc3)NC2=O)c1 [Compound 88] ([d2Thi][Phe(3-OMe)][dF][Phe(4-NH2)]-OH; linker N-4 via Suc)
< 4.00 | CC(C)(C)c1ccc(C[C@@H]2NC(=O)[C@@H](Cc3cccs3)NC(=O)CCC(=O)Nc3ccc(cc3)C[C@@H](C(=O)O)NC(=O)[C@@H](Cc3ccccc3)NC2=O)cc1 [Compound 90] ([d2Thi][Phe(4-tBu)][dF][Phe(4-NH2)]-OH; linker N-4 via Suc)
< 4.00 | O=C1CCC(=O)N[C@H](Cc2cccs2)C(=O)N[C@@H](CCc2ccccc2)C(=O)N[C@H](Cc2ccccc2)C(=O)N[C@H](C(=O)O)Cc2ccc(cc2)N1 [Compound 91] ([d2Thi][hPhe][dF][Phe(4-NH2)]-OH; linker N-4 via Suc)
4.00 to 4.52 | O=C1CCC(=O)N[C@H](Cc2cccs2)C(=O)N[C@@H](Cc2ccc(OCc3ccccc3)cc2)C(=O)N[C@H](Cc2ccccc2)C(=O)N[C@H](C(=O)O)Cc2ccc(cc2)N1 [Compound 92] ([d2Thi]Y(Bn)[dF][Phe(4-NH2)]-OH; linker N-4 via Suc)
< 4.00 | COc1ccc(C[C@@H]2NC(=O)[C@@H](Cc3cccs3)NC(=O)CCC(=O)Nc3ccc(cc3)C[C@@H](C(=O)O)NC(=O)[C@@H](Cc3ccccc3)NC2=O)cc1OC [Compound 93] ([d2Thi][Phe(3,4-(OMe)2)][dF][Phe(4-NH2)]-OH; linker N-4 via Suc)
< 4.00 | N#Cc1ccc(C[C@@H]2NC(=O)[C@@H](Cc3cccs3)NC(=O)CCC(=O)Nc3ccc(cc3)C[C@@H](C(=O)O)NC(=O)[C@@H](Cc3ccccc3)NC2=O)cc1 [Compound 94] ([d2Thi][Phe(4-CN)][dF][Phe(4-NH2)]-OH; linker N-4 via Suc)
4.00 to 4.52 | Cc1ccccc1-c1ccc(C[C@@H]2NC(=O)[C@@H](Cc3cccs3)NC(=O)CCC(=O)Nc3ccc(cc3)C[C@@H](C(=O)O)NC(=O)[C@@H](Cc3ccccc3)NC2=O)cc1 [Compound 95] ([d2Thi][Bip(2'-Me)][dF][Phe(4-NH2)]-OH; linker N-4 via Suc)
< 4.00 | O=C1CCC(=O)N[C@H](Cc2cccs2)C(=O)N[C@@H](Cc2cccs2)C(=O)N[C@H](Cc2ccccc2)C(=O)N[C@H](C(=O)O)Cc2ccc(cc2)N1 [Compound 97] ([d2Thi][2Thi][dF][Phe(4-NH2)]-OH; linker N-4 via Suc)
< 4.00 | O=C1CCC(=O)N[C@H](Cc2cccs2)C(=O)N[C@@H](Cc2cccc(O)c2)C(=O)N[C@H](Cc2ccccc2)C(=O)N[C@H](C(=O)O)Cc2ccc(cc2)N1 [Compound 102] ([d2Thi][mTyr][dF][Phe(4-NH2)]-OH; linker N-4 via Suc)
< 4.00 | Cc1ccc(C[C@@H]2NC(=O)[C@@H](Cc3cccs3)NC(=O)CCC(=O)Nc3ccc(cc3)C[C@@H](C(=O)O)NC(=O)[C@@H](Cc3ccccc3)NC2=O)cc1 [Compound 103] ([d2Thi][Phe(4-Me)][dF][Phe(4-NH2)]-OH; linker N-4 via Suc)
